Patent publication US11497212B2, “Substituted thiophenyl uracils, salts thereof and the use thereof as herbicidal agents” (Syngenta Crop Protection AG, priority 2017, dated 2022)

Columns and labels:
Assay type in all cases: in vivo
[1] = tested on: Setaria viridis; assay: Herbicidal action post-emergence (greenhouse pot trial); settings: scored visually after about 3 weeks vs untreated controls
Outline: (§1)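 One-leaf-stage seedlings, 2–3 weeks old, are treated on their green parts with an aqueous emulsion or suspension of the test compound (WP or EC, 0.5% additive) using 600 L/ha of water at up to 80 g/ha. About 3 weeks on, percent kill is estimated visually versus untreated plants.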

[2] = tested on: Echinochloa crus-galli; assay: as above; settings: scored visually after about 3 weeks vs untreated controls
Outline: as §1

[3] = tested on: Viola tricolor; assay: as above
Outline: as §1

[4] = tested on: Amaranthus retroflexus; assay: as above; settings: scored visually after about 3 weeks vs untreated controls
Outline: as §1

[5] = tested on: Lolium rigidum; assay: as above; settings: scored visually after about 3 weeks vs untreated controls
Outline: as §1

[6] = tested on: Polygonum convolvulus; assay: as above; settings: scored visually after about 3 weeks vs untreated controls
Outline: as §1

[7] = tested on: Pharbitis purpurea; assay: as above; settings: application rate 80 g/ha
Outline: as §1

[8] = tested on: Matricaria inodora; assay: as above; settings: scored visually after about 3 weeks vs untreated controls
Outline: as §1

[9] = tested on: Stellaria media; assay: as above; settings: scored visually after about 3 weeks vs untreated controls
Outline: as §1

[10] = tested on: Abutilon theophrasti; assay: as above; settings: scored visually after about 3 weeks vs untreated controls
Outline: as §1

[11] = tested on: Veronica persica; assay: as above
Outline: as §1

[12] = tested on: Alopecurus myosuroides; assay: as above; settings: application rate 80 g/ha, scored visually after about 3 weeks vs untreated controls
Outline: as §1

[13] = tested on: Glycine max; assay: Crop compatibility pre-emergence (greenhouse pot trial); settings: effect vs untreated controls
Outline: (§2)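 After soil-surface application of each compound to freshly sown pots (aqueous spray, 600 L/ha, 0.5% additive), plants grew under greenhouse conditions. Around 3 weeks later, injury was estimated visually on a 0–100% scale against controls.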

[14] = tested on: Oryza sativa; assay: as above; settings: application rate 20 g/ha, effect vs untreated controls
Outline: as §2

[15] = tested on: Zea mays; assay: as above; settings: application rate 20 g/ha, effect vs untreated controls
Outline: as §2

[16] = tested on: Glycine max; assay: Crop compatibility post-emergence (greenhouse pot trial)
Outline: (§3)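 Visual % damage vs untreated controls, ~3 wk post-spray (100% = plants died, 0% = as control). Plants in sandy loam, greenhouse, sprayed at one-leaf stage (2–3 wk after sowing); WP/EC in water + 0.5% additive, 600 L/ha.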

[17] = tested on: Oryza sativa; assay: as above
Outline: as §3

[18] = tested on: Zea mays; assay: as above
Outline: as §3

[19] = tested on: Triticum aestivum; assay: as above; settings: application rate 20 g/ha
Outline: as §3

[20] = tested on: Setaria viridis; assay: Herbicidal action pre-emergence (greenhouse pot trial); settings: application rate 320 g/ha, scored after about 3 weeks
Outline: (§4)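 Efficacy (%) was estimated visually about 3 wk post-application by comparing treated pots with untreated controls, where 0% denotes plants resembling controls and 100% denotes dead plants. Dose was 320 g/ha or less.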

[21] = tested on: Echinochloa crus-galli; assay: as above; settings: application rate 320 g/ha, scored after about 3 weeks
Outline: as §4

[22] = tested on: Viola tricolor; assay: as above; settings: application rate 320 g/ha, scored after about 3 weeks
Outline: as §4

[23] = tested on: Amaranthus retroflexus; assay: as above; settings: application rate 320 g/ha, scored after about 3 weeks
Outline: as §4

[24] = tested on: Avena fatua; assay: as above; settings: application rate 320 g/ha
Outline: as §4

[25] = tested on: Lolium rigidum; assay: as above
Outline: as §4

[26] = tested on: Hordeum murinum; assay: as above; settings: application rate 320 g/ha
Outline: as §4

[27] = tested on: Pharbitis purpurea; assay: as above; settings: application rate 320 g/ha
Outline: as §4

[28] = tested on: Matricaria inodora; assay: as above; settings: application rate 320 g/ha, scored after about 3 weeks
Outline: as §4

[29] = tested on: Cyperus esculentus; assay: as above; settings: application rate 320 g/ha
Outline: as §4

[30] = tested on: Stellaria media; assay: as above; settings: application rate 320 g/ha, scored after about 3 weeks
Outline: as §4

[31] = tested on: Abutilon theophrasti; assay: as above; settings: application rate 320 g/ha, scored after about 3 weeks
Outline: as §4

[32] = tested on: Veronica persica; assay: as above; settings: application rate 320 g/ha
Outline: as §4

[33] = tested on: Alopecurus myosuroides; assay: as above; settings: application rate 320 g/ha, scored after about 3 weeks
Outline: as §4

CC(Sc1cc(-n2c(=O)cc(C(F)(F)F)n(C)c2=O)c(F)cc1Cl)C(=O)NCC1CCCO1 (stereo not shown) [I.1-271]
Setaria viridis (Efficacy in %) ([1]; application rate 80 g/ha): 100%
Echinochloa crus-galli (Efficacy in %) ([2]; application rate 80 g/ha): 90%
Viola tricolor (Efficacy in %) ([3]; application rate 80 g/ha): 100%
Amaranthus retroflexus (Efficacy in %) ([4]; application rate 80 g/ha): 100%
Lolium rigidum (Efficacy in %) ([5]; application rate 80 g/ha): 100%
Polygonum convolvulus (Efficacy in %) ([6]; application rate 80 g/ha): 100%
Pharbitis purpurea (Efficacy in %) [7]: 100%
Matricaria inodora (Efficacy in %) ([8]; application rate 80 g/ha): 100%
Stellaria media (Efficacy in %) ([9]; application rate 80 g/ha): 100%
Abutilon theophrasti (Efficacy in %) ([10]; application rate 80 g/ha): 100%
Veronica persica (Efficacy in %) ([11]; application rate 80 g/ha): 100%
Alopecurus myosuroides (Efficacy in %) [12]: 100%
Glycine max (Efficacy in %) ([13]; application rate 20 g/ha): 10%
Oryza sativa (Efficacy in %) [14]: 20%
Zea mays (Efficacy in %) [15]: 0%
Glycine max (Efficacy in %) ([16]; application rate 5 g/ha): 20%
Oryza sativa (Efficacy in %) ([17]; application rate 20 g/ha): 10%
Zea mays (Efficacy in %) ([18]; application rate 20 g/ha): 10%
Triticum aestivum (Efficacy in %) [19]: 20%
Setaria viridis (Efficacy in %) [20]: 100%
Echinochloa crus-galli (Efficacy in %) [21]: 100%
Viola tricolor (Efficacy in %) [22]: 100%
Amaranthus retroflexus (Efficacy in %) [23]: 100%
Avena fatua (Efficacy in %) [24]: 100%
Lolium rigidum (Efficacy in %) ([25]; application rate 320 g/ha): 100%
Hordeum murinum (Efficacy in %) [26]: 100%
Pharbitis purpurea (Efficacy in %) [27]: 100%
Matricaria inodora (Efficacy in %) [28]: 100%
Cyperus esculentus (Efficacy in %) [29]: 80%
Stellaria media (Efficacy in %) [30]: 100%
Abutilon theophrasti (Efficacy in %) [31]: 100%
Veronica persica (Efficacy in %) [32]: 100%
Alopecurus myosuroides (Efficacy in %) [33]: 100%

CSCCNC(=O)C(C)Sc1cc(-n2c(=O)cc(C(F)(F)F)n(C)c2=O)c(F)cc1Cl (stereo not shown) [I.1-181]
Setaria viridis (Efficacy in %) ([1]; application rate 20 g/ha): 100%
Echinochloa crus-galli (Efficacy in %) ([2]; application rate 20 g/ha): 100%
Viola tricolor (Efficacy in %) ([3]; application rate 20 g/ha): 100%
Amaranthus retroflexus (Efficacy in %) ([4]; application rate 20 g/ha): 100%
Lolium rigidum (Efficacy in %) ([5]; application rate 20 g/ha): 80%
Polygonum convolvulus (Efficacy in %) ([6]; application rate 20 g/ha): 100%
Matricaria inodora (Efficacy in %) ([8]; application rate 20 g/ha): 100%
Stellaria media (Efficacy in %) ([9]; application rate 20 g/ha): 100%
Abutilon theophrasti (Efficacy in %) ([10]; application rate 20 g/ha): 100%
Veronica persica (Efficacy in %) ([11]; application rate 20 g/ha): 100%
Alopecurus myosuroides (Efficacy in %) [12]: 80%
Glycine max (Efficacy in %) ([13]; application rate 80 g/ha): 20%
Oryza sativa (Efficacy in %) [14]: 0%
Zea mays (Efficacy in %) [15]: 0%
Glycine max (Efficacy in %) ([16]; application rate 20 g/ha): 20%
Oryza sativa (Efficacy in %) ([17]; application rate 80 g/ha): 10%
Zea mays (Efficacy in %) ([18]; application rate 80 g/ha): 20%
Triticum aestivum (Efficacy in %) [19]: 20%
Setaria viridis (Efficacy in %) [20]: 100%
Echinochloa crus-galli (Efficacy in %) [21]: 100%
Viola tricolor (Efficacy in %) [22]: 100%
Amaranthus retroflexus (Efficacy in %) [23]: 100%
Avena fatua (Efficacy in %) [24]: 100%
Lolium rigidum (Efficacy in %) ([25]; application rate 80 g/ha): 100%
Hordeum murinum (Efficacy in %) [26]: 90%
Pharbitis purpurea (Efficacy in %) [27]: 100%
Matricaria inodora (Efficacy in %) [28]: 100%
Stellaria media (Efficacy in %) [30]: 100%
Abutilon theophrasti (Efficacy in %) [31]: 100%
Veronica persica (Efficacy in %) [32]: 100%
Alopecurus myosuroides (Efficacy in %) [33]: 100%
